Reference: patent publication US10435447B2, “Bacteriocidal peptides and uses thereof” (priority 2015, dated 2019)
Converted amounts (≈) assume the structure as drawn. “Also recorded” adds a separate entry of the source. Like-named read-outs stand apart in the source and are kept apart here. Residues, ends and D or L forms follow the SMILES beside them. No end group written: not given here.

Columns and labels:
[1] = test system: 19 selected strains of Gram-negative bacteria; assay type: cell-based; conditions: for antibacterial / bacteriocidal activity (in words): 19 Gram-negative strains; for number of the 19 Gram-negative strains inhibited: peptide at 16 μg/ml (~4 μM)
Excerpt: FIG. 3. […] FIG. 3A. […] FIG. 3B. […] FIG. 3C. […] FIG. 3D. […] FIG. 3F.

[2] = test system: human red blood cells (hRBCs); conditions: human RBCs
[3] = test system: Toll-like receptor 3 (TLR3); test: IL-6 ELISA, TLR3 signaling with poly(I:C) in BEAS-2B cells; assay type: cell-based, human
Description: Innate immune signaling by endogenous Toll-like receptor 3 (TLR3) in BEAS-2B cells in response to double-stranded RNA and various bacteriocidal peptides. IL-6 cytokine produced in response to signal transduction by TLR3 and the double-stranded RNA mimic, poly(I:C), was quantified using ELISA. Where present, the peptides were added to the media of BEAS-2B cells to a final concentration of 2 μM. […] All assays were performed in three independent samples and the mean and one standard error is shown above the bars.

| Molecule | MIC (E. faecalis) | MIC (S. aureus; S. aureus 25923) | MIC (S. aureus; S. aureus 29213) | RBC lysis (in words) [2] | enhancement of TLR3 signaling / IL-6 production (in words) [3] | further results |
| --- | --- | --- | --- | --- | --- | --- |
| CC[C@H](C)[C@H](NC(=O)[C@@H](NC(=O)[C@@H]1CCCN1C(=O)[C@H](CO)NC(=O)[C@H](CC(C)C)NC(=O)[C@H](CCCCN)NC(=O)[C@H](CCCCN)NC(=O)[C@H](Cc1ccccc1)NC(=O)[C@H](CC(C)C)NC(=O)[C@H](CCCCN)NC(=O)[C@H](CCCCN)NC(=O)[C@H](Cc1ccccc1)NC(=O)[C@H](CCCCN)NC(=O)[C@H](CCCCN)NC(=O)[C@H](CCCNC(=N)N)NC(=O)[C@H](Cc1ccccc1)NC(=O)[C@H](CCCNC(=N)N)NC(=O)[C@H](CCCCN)NC(=O)[C@H](Cc1ccccc1)NC(=O)[C@H](CCCNC(=N)N)NC(=O)CN)C(C)C)C(=O)N1CCC[C@H]1C(=O)N[C@@H](CC(C)C)C(=O)N[C@@H](CC(C)C)C(=O)N[C@@H](Cc1c[nH]cn1)C(=O)N[C@@H](CC(C)C)C(=O)NCC(=O)O [BMAP-27] (H-GRFKRFRKKFKKLFKKLSPVIPLLHLG-OH; N-terminus and C-terminus assumed) | >32 µg/mL | – | – | – | – | antibacterial / bacteriocidal activity (in words) [1]: most potent antibacterial activities; also recorded: most effective |
| CC[C@H](C)[C@H](NC(=O)[C@H](CCCCN)NC(=O)[C@H](CCCNC(=N)N)NC(=O)CNC(=O)[C@H](CC(C)C)NC(=O)[C@H](CCCCN)NC(=O)[C@H](CCC(N)=O)NC(=O)[C@@H](NC(=O)[C@H](CCCNC(=N)N)NC(=O)[C@H](CCCCN)NC(=O)[C@H](CCCNC(=N)N)NC(=O)[C@@H](NC(=O)[C@H](CCCCN)NC(=O)[C@H](CCCNC(=N)N)NC(=O)[C@H](Cc1ccccc1)NC(=O)[C@H](CCCCN)NC(=O)[C@H](CCCCN)NC(=O)[C@H](CCCNC(=N)N)NC(=O)[C@H](CC(C)C)NC(=O)CN)[C@@H](C)O)[C@@H](C)CC)C(=O)NCC(=O)N[C@@H](CCCCN)C(=O)N[C@H](C(=O)NCC(=O)N[C@@H](CCCNC(=N)N)C(=O)N[C@@H](CCCCN)C(=O)N[C@H](C(=O)N[C@@H](Cc1c[nH]c2ccccc12)C(=O)N[C@@H](CCCCN)C(=O)N[C@@H](C)C(=O)N[C@@H](Cc1c[nH]c2ccccc12)C(=O)N[C@@H](CCCNC(=N)N)C(=O)N[C@@H](CCC(=O)O)C(=O)N[C@@H](Cc1ccc(O)cc1)C(=O)O)C(C)C)[C@@H](C)O [CAP-11V1] (H-GLRKKFRKTRKRIQKLGRKIGKTGRKVWKAWREY-OH) | >32 µg/mL | 32 µg/mL (≈ 7.51 µM) | 32 µg/mL (≈ 7.51 µM) | decreased RBC lysis; also recorded: did not result in increased lysis of human RBCs | – | – |
| CC[C@H](C)[C@H](NC(=O)[C@H](CCCCN)NC(=O)[C@H](CCC(=O)O)NC(=O)[C@H](CCCCN)NC(=O)[C@H](CO)NC(=O)[C@H](CCCCN)NC(=O)[C@H](CCCNC(=N)N)NC(=O)[C@H](Cc1ccccc1)NC(=O)[C@H](Cc1ccccc1)NC(=O)[C@H](C)NC(=O)CNC(=O)[C@H](CC(C)C)NC(=O)[C@@H](N)CC(C)C)C(=O)NCC(=O)N[C@@H](CCCCN)C(=O)N[C@@H](C)C(=O)N[C@@H](Cc1ccccc1)C(=O)N[C@@H](CCCCN)C(=O)N[C@@H](CCCNC(=N)N)C(=O)N[C@H](C(=O)N[C@H](C(=O)N[C@@H](CCC(N)=O)C(=O)N[C@@H](CCCNC(=N)N)C(=O)N[C@H](C(=O)N[C@@H](CCCCN)C(=O)N[C@@H](CC(=O)O)C(=O)N[C@@H](Cc1ccccc1)C(=O)N[C@@H](CC(C)C)C(=O)N[C@@H](CCCNC(=N)N)C(=O)O)[C@@H](C)CC)C(C)C)[C@@H](C)CC [LL-29V2] (H-LLGAFFRKSKEKIGKAFKRIVQRIKDFLR-OH) | – | – | – | slightly increased RBC lysis | – | – |
| CC[C@H](C)[C@H](NC(=O)[C@H](CCCCN)NC(=O)[C@H](C)NC(=O)[C@H](CCCCN)NC(=O)[C@H](CO)NC(=O)[C@H](CCCCN)NC(=O)[C@H](CCCNC(=N)N)NC(=O)[C@H](Cc1ccccc1)NC(=O)[C@H](Cc1ccccc1)NC(=O)[C@H](C)NC(=O)CNC(=O)[C@H](CC(C)C)NC(=O)[C@@H](N)CC(C)C)C(=O)NCC(=O)N[C@@H](CCCCN)C(=O)N[C@@H](C)C(=O)N[C@@H](Cc1ccccc1)C(=O)N[C@@H](CCCCN)C(=O)N[C@@H](CCCNC(=N)N)C(=O)N[C@H](C(=O)N[C@H](C(=O)N[C@@H](CCC(N)=O)C(=O)N[C@@H](CCCNC(=N)N)C(=O)N[C@H](C(=O)N[C@@H](CCCCN)C(=O)N[C@@H](C)C(=O)N[C@@H](Cc1ccccc1)C(=O)N[C@@H](CC(C)C)C(=O)N[C@@H](CCCNC(=N)N)C(=O)O)[C@@H](C)CC)C(C)C)[C@@H](C)CC [LL-29V] (H-LLGAFFRKSKAKIGKAFKRIVQRIKAFLR-OH) | – | – | – | comparable levels of RBC lysis as LL-29 | – | – |
| CC[C@H](C)[C@H](NC(=O)[C@H](CCCCN)NC(=O)[C@H](CCC(=O)O)NC(=O)[C@H](CCCCN)NC(=O)[C@H](CO)NC(=O)[C@H](CCCCN)NC(=O)[C@H](CCCNC(=N)N)NC(=O)[C@H](Cc1ccccc1)NC(=O)[C@H](Cc1ccccc1)NC(=O)[C@H](CC(=O)O)NC(=O)CNC(=O)[C@H](CC(C)C)NC(=O)[C@@H](N)CC(C)C)C(=O)NCC(=O)N[C@@H](CCCCN)C(=O)N[C@@H](CCC(=O)O)C(=O)N[C@@H](Cc1ccccc1)C(=O)N[C@@H](CCCCN)C(=O)N[C@@H](CCCNC(=N)N)C(=O)N[C@H](C(=O)N[C@H](C(=O)N[C@@H](CCC(N)=O)C(=O)N[C@@H](CCCNC(=N)N)C(=O)N[C@H](C(=O)N[C@@H](CCCCN)C(=O)N[C@@H](CC(=O)O)C(=O)N[C@@H](Cc1ccccc1)C(=O)N[C@@H](CC(C)C)C(=O)N[C@@H](CCCNC(=N)N)C(=O)O)[C@@H](C)CC)C(C)C)[C@@H](C)CC [LL-29] (H-LLGDFFRKSKEKIGKEFKRIVQRIKDFLR-OH) | – | – | – | reduced in RBC lysis; also recorded: did not result in increased lysis of human RBCs | – | – |
| CC[C@H](C)[C@H](NC(=O)[C@H](CCCCN)NC(=O)[C@H](CCC(=O)O)NC(=O)[C@H](CCCCN)NC(=O)[C@H](CO)NC(=O)[C@H](CCCCN)NC(=O)[C@H](CCCNC(=N)N)NC(=O)[C@H](Cc1ccccc1)NC(=O)[C@H](Cc1ccccc1)NC(=O)[C@H](CC(=O)O)NC(=O)CNC(=O)[C@H](CC(C)C)NC(=O)[C@@H](N)CC(C)C)C(=O)NCC(=O)N[C@@H](CCCCN)C(=O)N[C@@H](CCC(=O)O)C(=O)N[C@@H](Cc1ccccc1)C(=O)N[C@@H](CCCCN)C(=O)N[C@@H](CCCNC(=N)N)C(=O)N[C@H](C(=O)N[C@H](C(=O)N[C@@H](CCC(N)=O)C(=O)N[C@@H](CCCNC(=N)N)C(=O)N[C@H](C(=O)N[C@@H](CCCCN)C(=O)N[C@@H](CC(=O)O)C(=O)N[C@@H](Cc1ccccc1)C(=O)N[C@@H](CC(C)C)C(=O)N[C@@H](CCCNC(=N)N)C(=O)N[C@@H](CC(N)=O)C(=O)N[C@@H](CC(C)C)C(=O)N[C@H](C(=O)N1CCC[C@H]1C(=O)N[C@@H](CCCNC(=N)N)C(=O)N[C@H](C(=O)N[C@@H](CCC(=O)O)C(=O)N[C@@H](CO)C(=O)O)[C@@H](C)O)C(C)C)[C@@H](C)CC)C(C)C)[C@@H](C)CC [LL-37] | – | – | – | RBC lysis in a concentration-dependent manner | – | – |
| BMAP-34: SEQ ID NO: 7, cow cathelicidin, GLFRRLRDSIRRGQQKILEKARRIGERIKDIFRG (listed as Bos taurus) | – | – | – | – | more similar to CRAMP | – |
| GLRKKFRETRKEIQKLGEKIGKTGRKVWKDWREYGQIPYPCRI [CAP-11V3] | >32 µg/mL | >32 µg/mL | >32 µg/mL | – | – | – |
| GLRKKFRETRKEIQKLGRKIGKTGRKVWKAWREYGQIPYPCRI [CAP-11V2] | >32 µg/mL | >32 µg/mL | >32 µg/mL | – | – | – |
| GLRKKFRKTRKRIQKLGRKIGKTGRKVWKAWREYGQIPYPCRI [CAP-11] | >32 µg/mL | 32 µg/mL | 32 µg/mL | – | retained reduced levels of activation of TLR3 in comparison to LL-37; also recorded: retain partial enhancement of TLR3 signaling | antibacterial / bacteriocidal activity (in words) [1]: most potent antibacterial activities; also recorded: most effective; number of the 19 Gram-negative strains inhibited [1]: 16 strains |
| PMAP-37: SEQ ID NO: 8, pig cathelicidin, GLLSRLRDFLSDRGRRLGEKIERIGQKIKDLSEFFQS (listed as Sus scrofa) | – | – | – | – | more similar to CRAMP | – |
| RL-37: SEQ ID NO: 2, Rhesus monkey cathelicidin, RLGNFFRKVKEKIGGGLKKVGQKIKDFLGNLVPRTAS (listed as Macaca mulatta) | – | – | – | – | retain partial enhancement of TLR3 signaling | – |
| eCATH-3: SEQ ID NO: 9, horse cathelicidin, KRFHSVGSLIQRHQQMIRDKSEATRHGIRIITRPKLLLAS (listed as Equus caballus) | – | – | – | – | more similar to CRAMP | antibacterial / bacteriocidal activity (in words) [1]: least effective; number of the 19 Gram-negative strains inhibited [1]: did not inhibit the growth of any |
